Literature values, collected in patent publication US5574025A, “Inhibitors of prenyl-protein transferases” (Merck & Co., Inc., priority 1994, dated 1996).

Tested on: Ras
Details: Hancock et al., Casey et al., Schafer et al.

Row | Structure (SMILES) | Inhibition of Ras famesylation in vivo
1 | CC[C@H](C)C(=O)O[C@H]1C[C@@H](C)C=C2C=C[C@H](C)[C@H](CC[C@@H]3C[C@@H](O)CC(=O)O3)[C@H]21 [Lovastatin] | Inhibition of Ras famesylation in vivo has been demonstrated
2 | CC[C@H](C)C(=O)O[C@H]1CCC=C2C=C[C@H](C)[C@H](CC[C@@H]3C[C@@H](O)CC(=O)O3)[C@H]21 [compactin] | Inhibition of Ras famesylation in vivo has been demonstrated
